# Where two headings read alike, the source gives them in different places.
# Tests used:
# [1] = tested on: Plasmodium falciparum: 3D7 strain; assay: Antimalarial activity by LDH assay, 3D7 strain; format: cell-based; conditions: for antimalarial activity (LDH assay, FIG. 2): 10 nM to 10 μM
# Procedure: Compounds that chelate metal ions in various modes (L1 to L25 in FIG. 1) were selected, and their antimalarial activities were evaluated by LDH assay. Since infection with malaria causes an increase in the LDH activity, the evaluation can be made based on the criteria that the lower the detected LDH activity, the higher the antimalarial activity.
# (§1) The LDH assay was carried out according to the following procedure. That is, 0.5 μL of a solution of each compound in DMSO was added to 100 μL of a culture liquid of erythrocytes (88% RPMI solution; 2% erythrocytes, provided by the Japanese Red Cross Society; and 10% human serum, provided by the Japanese Red Cross Society) infected with falciparum malaria parasites (Plasmodium falciparum: 3D7 strain) (infection rate of erythrocytes, 0.3%). The resulting culture liquid was subjected to culture in a 96-well plate under an atmosphere of 5% CO2, 5% O2, and 90% N2 at 37° C. for three days. Subsequently, the culture liquid was cooled at −80° C. for three hours, and then returned to room temperature. After addition of 150 μL of an LDH enzyme reaction liquid (0.15 mg/mL diaphorase, 37.5 μL/mL of 50% sodium lactate, 0.17 mg/mL NBT, 0.11 mg/mL APAD, 0.16 mL/mL of 1 M Tris-HCl (pH 8), and 8.3 μL/mL of Tween 20), the absorbance at 620 nm was measured.
# By the same procedure as in Experiment 1, erythrocytes infected with malaria were treated with L6 (about 40 nM) together with iron ion (about 50 μM), copper ion (about 1 μM), or zinc ion (about 10 μM), and the antimalarial activity was evaluated by LDH assay.
# (§2) According to the same procedure as in Experiment 1, the antimalarial activities of metal complexes (M-L6) synthesized by mixing various kinds of metal ions (MSO4: M=Zn, Fe, Cu, Co, Ni, or Mn) with L6 at a molar ratio of 1:1 were evaluated by LDH assay.
# [2] = tested on: HeLa: human cervical cancer cells; assay: Cytotoxicity by WST-8 assay, HeLa; format: cell-based; conditions: Table 3, 48 hours, WST-8
# Procedure: (§3) After treating various kinds of cells (HEK293T: human embryonic kidney cells; HeLa: human cervical cancer cells; NIH3T3: mouse fibroblast cells; tsNRK: rat kidney cells; and 3Y1: rat fibroblasts) with a metal chelator for 48 hours, the cytotoxicities of the cells were evaluated by WST-8 assay.
# (§4) Subsequently, the following cell types: HL60 (human promyelocytic leukemia cells), HeLa (human cervical cancer cells), C3H10T1/2 (murine multipotential mesenchymal cells), and HEK293 (human embryonic kidney 293 cells); were treated with metal complexes M-L6 (M=Zn, Fe, Cu, Co, Ni, and Mn) for 48 hours, and then subjected to WST-8 assay to perform evaluation of the cytotoxicity of each kind of metal complex.
# [3] = tested on: HL60 (human promyelocytic leukemia cells); assay: Cytotoxicity by WST-8 assay, HL60; format: cell-based; conditions: Table 3, 48 hours
# Procedure: as §4
# [4] = tested on: C3H10T1/2 (murine multipotential mesenchymal cells); assay: Cytotoxicity by WST-8 assay, C3H10T1/2; format: cell-based; conditions: Table 3, 48 hours
# Procedure: as §4
# [5] = tested on: HEK293 (human embryonic kidney 293 cells); assay: Cytotoxicity by WST-8 assay, HEK293; format: cell-based; conditions: Table 3, 48 hours
# Procedure: as §4
# [6] = tested on: drug-resistant malaria parasite K1 strain; assay: Antimalarial activity by LDH assay, K1 strain; format: cell-based, Plasmodium falciparum
# Procedure: as §1, §2
# According to the same procedure as in Experiment 1, the antimalarial activities of L18 and di-2-pyridylketone 4,4-dimethyl-3-thiosemicarbazone (Sigma) against the malaria parasite 3D7 strain and the drug-resistant malaria parasite K1 strain were evaluated by LDH assay.
# According to the same procedure as in Experiment 1, the antimalarial activities of 4′-(4-Pyridyl)-2,2′:6′,2″-terpyridine (Tokyo Chemical Industry) against the malaria parasite 3D7 strain and the drug-resistant malaria parasite K1 strain were evaluated by LDH assay.
# [7] = tested on: Dd2 strain (drug-resistant malaria parasites); assay: Antimalarial activity by LDH assay, Dd2 strain; format: cell-based, Plasmodium falciparum; conditions: Table 2, LDH assay, Experiment 6; read-out: IC50 antimalarial activity, Dd2
# [8] = tested on: HL60, HeLa, C3H10T1/2, and HEK293; assay: Cytotoxicity by WST-8 assay, summary for the four cell types of Experiment 6; format: cell-based; conditions: C3H10T1/2, HEK293, 48 hours
# Procedure: as §4
# [9] = tested on: mouse malaria parasites (Plasmodium berghei ANKA strain); assay: Life-prolonging effect in malaria-infected mice, oral administration; format: in vivo; conditions: oral 200 mg/kg on Day 1, Day 3, and Day 6
# Procedure: To mice (7 weeks old, Balb/c, male), erythrocytes infected with mouse malaria parasites (Plasmodium berghei ANKA strain) (total number of erythrocytes per mouse, about 10^7; rate of malaria-infected erythrocytes, 0.3%) were intraperitoneally injected. L6 was administered (20 mg/kg, intraperitoneal injection) to each of the thus obtained malaria-infected mice, and the rate of malaria-infected erythrocytes was measured. As a result, on Day 2 to Day 6 after the infection, the infection rate tended to increase in the negative control to which only DMSO was administered. […] The effect of L6 to reduce the infection rate was almost equivalent to the effect of an existing drug, chloroquine (CQ).
# To malaria-infected mice obtained by the same procedure as in Experiment 4, an aqueous solution of L6 or the zinc complex Zn-L6 was orally administered (at a dose of 200 mg/kg on Day 1, Day 3, and Day 6; N=6), and changes in the number of surviving individuals were investigated. […] That is, it is thought that, by formation of metal complex with zinc ion, L6 can remarkably suppress the toxicity in vivo while sufficiently maintaining the antimalarial activity.
# [10] = Cytotoxicity by WST-8 assay, HEK293T; format: cell-based; conditions: human, HEK293T cells
# Procedure: as §3
# [11] = Cytotoxicity by WST-8 assay, tsNRK; format: cell-based; conditions: rat, tsNRK cells
# Procedure: as §3
# [12] = Cytotoxicity by WST-8 assay, 3Y1; format: cell-based; conditions: rat, 3Y1 cells, 3Y1, 48 hours
# Procedure: as §3
# [13] = Cytotoxicity by WST-8 assay, HeLa; format: cell-based, human; conditions: human, HeLa cells, HeLa, 48 hours, read-out: IC50 value, cytotoxicity
# Procedure: as §3, §4
# [14] = Cytotoxicity by WST-8 assay, NIH3T3; format: cell-based; conditions: mouse, NIH3T3 cells, NIH3T3, 48 hours
# Procedure: as §3
# [15] = tested on: malaria parasites; conditions: cited from earlier work
# [16] = Table 2, LDH assay, Experiment 6, read-out: IC50 antimalarial activity, 3D7
# [17] = Plasmodium falciparum, 3D7, 3D7 strain, values in text, read-out: IC50 value for the antimalarial activity based on the LDH assay
# [18] = Plasmodium falciparum, LDH assay, values in text, read-out: IC50 antimalarial activity against the K1 strain
"IC50 [1, 17]",Compound,"IC50 [1, 16]",IC50 [2],IC50 [3],IC50 [4],IC50 [5],further results
,O=S(=O)([O-])[O-].[Co+2].c1ccc(CN(Cc2ccccn2)Cc2ccccn2)nc1 [Co-L6],550 nM,18 µM,6.6 µM,18 µM,20.6 µM,
~70 nM,O=C(Nc1cccc(CN(Cc2ccccn2)Cc2ccccn2)n1)c1ccccc1 [Bis(2-pyridylmethyl)(6-benzamide-2-pyridylmethyl)amine],,,,,,
,O=S(=O)([O-])[O-].[Zn+2].c1ccc(CN(Cc2ccccn2)Cc2ccccn2)nc1 [Zn-L6],93 nM,> 100 µM,> 100 µM,> 100 µM,> 100 µM,"antimalarial activity of metal complex compared to L6 alone ([1]; LDH assay, metal ion:L6 molar ratio 1:1, result in words): almost the same as that in the case of L6 alone; IC50 ([6]; Table 2, LDH assay, Experiment 6, read-out: IC50 antimalarial activity, K1): 89 nM; IC50 [7]: 166 nM; IC50 [8]: > 100 µM; cure / infection rate of malaria [9]: completely cured mice, in which the infection rate of malaria was 0%, could be found; life-prolonging effect (number of surviving individuals) [9]: significantly better life-prolonging effect than in the control"
,"Nc1cc2cccnc2c2ncccc12 [L3, (1,10)-Phenanthrolin-5-amine]",,,,,,IC50 at 48 h ([10]; 1st measurement): 490 nM; IC50 at 48 h ([10]; 2nd measurement): 470 nM; IC50 at 48 h ([11]; 1st measurement): 6120 nM; IC50 at 48 h ([11]; 2nd measurement): 3080 nM; IC50 at 48 h ([12]; 1st measurement): 730 nM; IC50 at 48 h ([12]; 2nd measurement): 670 nM
,O=S(=O)([O-])[O-].[Cu+2].c1ccc(CN(Cc2ccccn2)Cc2ccccn2)nc1 [Cu-L6],120 nM,13 µM,5 µM,12 µM,6 µM,
,"CCN(CC)CCCC(C)Nc1ccnc2cc(Cl)ccc12 (stereo not drawn) [chloroquine, reference compound]",,,,,,"IC50 ([1]; Plasmodium falciparum, 3D7, read-out: IC50 value for the antimalarial activity based on the LDH assay): ~45 nM"
~280 nM,"c1ccc(-c2cccc(-c3ccccn3)n2)nc1 [L18, 2,2′:6′,2″-Terpyridine]",,,,,,"antimalarial activity (LDH assay, FIG. 2) ([1]; result in words): relatively strong antimalarial activity; IC50 [6, 18]: ~120 nM"
,O=S(=O)([O-])[O-].[Fe+2].c1ccc(CN(Cc2ccccn2)Cc2ccccn2)nc1 [Fe-L6],190 nM,9.5 µM,4.8 µM,9.6 µM,6.1 µM,
,"c1ccc(-c2ccnc3c2ccc2c(-c4ccccc4)ccnc23)cc1 [L17, 4,7-Diphenyl-1,10-phenanthroline]",,,,,,"antimalarial activity (LDH assay, FIG. 2) ([1]; result in words): relatively strong antimalarial activity"
~2 nM,CN(C(=S)NN=C(c1ccccn1)c1ccccn1)C1CCCCC1 [di-2-pyridylketone-4-cyclohexyl-4-methyl-3-thiosemicarbazone],,,,,,
,"c1ccc(CN(CCN(Cc2ccccn2)Cc2ccccn2)Cc2ccccn2)nc1 [L7, N,N,N′,N′-Tetrakis(2-pyridylmethyl)ethylenediamine, reference compound]",,,,,,IC50 at 48 h ([10]; 1st measurement): 1990 nM; IC50 at 48 h ([10]; 2nd measurement): 3140 nM; IC50 at 48 h ([13]; 1st measurement (Table 1)): 5.53 µM; IC50 at 48 h ([13]; 2nd measurement (Table 1)): 4.96 µM; IC50 at 48 h ([14]; 1st measurement): 1660 nM; IC50 at 48 h ([14]; 2nd measurement): 1790 nM; IC50 at 48 h ([11]; 1st measurement): 1840 nM; IC50 at 48 h ([11]; 2nd measurement): 2090 nM; IC50 at 48 h ([12]; 1st measurement): 5110 nM; IC50 at 48 h ([12]; 2nd measurement): 4930 nM; inhibition of infection with malaria parasites ([15]; Non-patent Document 1): inhibits infection with malaria parasites
~4 nM,"CN(C)C(=S)NN=C(c1ccccn1)c1ccccn1 [di-2-pyridylketone 4,4-dimethyl-3-thiosemicarbazone]",,,,,,"IC50 [6, 18]: ~3 nM"
~160 nM,"c1ccc(-c2cc(-c3ccncc3)cc(-c3ccccn3)n2)nc1 [4′-(4-Pyridyl)-2,2′:6′,2″-terpyridine]",,,,,,"IC50 [6, 18]: ~70 nM"
~16 nM,"C[C@@H]1CC[C@H]2[C@@H](C)C(=O)O[C@@H]3O[C@@]4(C)CC[C@@H]1[C@]32OO4 [artemisinin, reference compound]",,,,,,
,O=S(=O)([O-])[O-].[Ni+2].c1ccc(CN(Cc2ccccn2)Cc2ccccn2)nc1 [Ni-L6],740 nM,32 µM,16 µM,54 µM,47.6 µM,
,"CC(=O)N(O)CCCCCNC(=O)CCC(=O)N(O)CCCCCNC(=O)CCC(=O)N(O)CCCCCN [DFO, desferrioxamine]",,,,,,"IC50 ([15]; Non-patent Document 3, read-out: antimalarial activity IC50): 21 µM"
,O=S(=O)([O-])[O-].[Mn+2].c1ccc(CN(Cc2ccccn2)Cc2ccccn2)nc1 [Mn-L6],110 nM,4.5 µM,1.5 µM,4.2 µM,3.7 µM,

# Reference: patent publication US10292976B2, “Anti-malarial agent” (RIKEN, priority 2014, dated 2019)
